Experimental data from paper PMC10449632, “Structural basis for translation inhibition by the glycosylated drosocin peptide” (Nature Chemical Biology, 2023).
No end group written: not given here. *: point of attachment. αGalNAc = CC(=O)N[C@@H]1[C@@H](O)[C@@H](O)[C@@H](CO)O[C@@H]1*

Assays:
[1] = tested on: E. coli SQ171 A2503G; test: Antibiotic susceptibility (growth) assay, E. coli SQ171 A2503G; assay type: cell-based, Escherichia coli; conditions: A2503G mutation; LB medium; 5, 10, 30 μM
From the text: (§1) Strains E. coli Keio wild-type and E. coli Keio ΔsbmA used from the Keio knockout collection (Horizon, https://horizondiscovery.com). Wild-type E. coli SQ110 (ΔrrnGADBHC(ptRNA67))[47] and SQ171 (ΔrrnGADEHBC(pKK3535, ptRNA67))[47] strains and related mutants E. coli SQ110 A2059G and E. coli SQ171 A2503G were obtained from the previous Api137 study. E. coli strains SQ171 bearing A752G, U2609C and A752G:U2609C mutations[43] and E. coli SQ171 U2609G[48] were generated previously.
(§2) The susceptibility of E. coli strains to compounds was evaluated by monitoring the bacterial growth in presence of increasing concentrations of the compound of interest. […] Values measured from wells containing just the medium were used as a blank. The growth in each well was monitored by measuring the OD600 every 10 minutes for a total of 20 hours at 37 °C with shaking using a plate reader (Tecan Infinite 200 PRO). The inhibition resulting from a compound’s concentration was evaluated by normalizing the OD600 at t = 12 hours (corresponding to the end of the log phase) from the treated culture to the untreated one. […] For each concentration, the standard deviation was calculated, taking into account each single replica and its specific technical error from the plate reader.

[2] = tested on: ribosomes at the stop codon of MLIF-UAA mRNA in the presence of RF2; test: Toeprinting assay on MLIF*-mRNA with RF2; assay type: biochemical, Escherichia coli; conditions: Fig 1h, RF2 (10X), 30 μM compound, plotted values
Method: To ascertain which step during protein synthesis is affected by drosocin, we performed toeprinting assays, where reverse transcription is used to monitor the position of ribosomes on a defined mRNA[34].
Toeprinting reactions were performed as described previously. In brief, reactions were performed with 6 μl of PURExpress ΔRF123 in vitro protein synthesis system (NEB) in the presence of 1× RF3 and either 1× or 10× of RF1 or RF2 (relative to the manufacturer’s recommendation). The reactions were carried out on an MLIF-UAA-toeprint template (5′-[…]-3′, ORF start codon and stop codon are underlined bold), containing T7 promoter, a ribosome binding site, an MLIF-coding ORF and the NV1* primer binding site. The template is a version of the ErmBL template with a truncated ORF and addition of a isoleucine coding codon at the third position in the ORF. The template was generated by polymerase chain reaction of two overlapping 77-nt- and 78-nt-long primers. The reactions contained 30 ng of the MLIF-UAA-toeprint DNA template. The reactions were supplemented with Api137, thiostrepton or one of the drosocin derivates as specified. The transcription–translation reactions were incubated for 15 minutes at 37 °C. The reverse transcription on the MLIF-short-UAA toeprint template was carried out using AMV RT and primer NV*1-Alexa 647 (5′-[…]-3′). The transcription–translation reactions were incubated with AMV RT and NV*1-Alexa 647 for 20 minutes at 37 °C. mRNA degradation was carried out by the addition of 1 µl of 5 M NaOH. The reactions were neutralized with 0.7 µl of 25% HCl, and nucleotide removal was performed with the QIAquick Nucleotide Removal Kit (Qiagen). The samples were dried under vacuum for 2 hours at 60 °C for subsequent gel electrophoresis. The 6% acrylamide gels were scanned on a Typhoon scanner (GE Healthcare).

[3] = tested on: E. coli SQ110 A2059G; test: Antibiotic susceptibility (growth) assay, E. coli SQ110 A2059G; assay type: cell-based, Escherichia coli; conditions: A2059G mutation; LB medium; 5, 10, 30 μM
From the text: as §1, §2

Row | Substance | resistance of mutant compared to the wild-type strain [1] | Relative stop band intensity signal [2] | resistance of mutant compared to the wild-type strain [3]
1 | Dro1: naturally occurring drosocin carrying monosaccharide α-D-GalNAc attached to Thr11 (GKPRPYSPRPT(αGalNAc)SHPRPIRV; UniProt P36193 22-40, looked up) | more resistant | 0.1899 | more resistant
2 | Dro: unmodified drosocin, 19 amino acid proline-rich antimicrobial peptide lacking O-glycosylation (GKPRPYSPRPTSHPRPIRV; Drosocin; UniProt P36193 22-40, looked up) |  | 0.1232 | 
